Read-outs that look alike come from different tables or passages of the source.
Tests used:
S. aureus ATCC 33592 = tested on: S. aureus ATCC 33592
Experimental: The antibacterial and salt-resistant activity of the peptides was tested using Escherichia coli (ATCC 25922), Pseudomonas aeruginosa Migula (ATCC 27853), Acinetobacter sp. (BCRC number 14B0091, BCRC number 14B0097, and BCRC number 14B0100), and Staphylococcus aureus sp. strains (ATCC 25923, ATCC 33591, ATCC 33592, ATCC 33593, and ATCC 6538). All bacteria were obtained from the Food Industry Research and Development Institute (Hsinchu, Taiwan) and cultured in sterilized Müller-Hinton (MH) broth at 37 °C and 200 rpm for 8 h. The inoculum concentrations were determined by measuring the optical density at 600 nm (OD 600 = 1, approximately 10^8 CFU/mL) using an Ultrospec 2100 pro UV-Visible spectrophotometer (Biochrom Ltd., Cambridge, UK) after 8 h of culture.
The antibacterial activities of the peptides in Müller-Hinton (MH) broth and modified LYM broth were determined using the standard broth microdilution method as per Clinical and Laboratory Standards Institute (CLSI) guidelines. The LYM broth was prepared with specific components and adjusted to different conditions, including varying concentrations of NaCl and MgCl2, and different pH levels. To prepare the LYM broth, 5.4 mM KCl, 5.6 mM Na2HPO4, 0.5 mM MgSO4, and 1.0 mM sodium citrate were added. Additionally, 0.4 mg of ZnCl2, 2.0 mg of FeCl3·6H2O, 0.1 mg of CuSO4·5H2O, 0.1 mg of MnSO4·H2O, 0.1 mg of Na2B4O7∙10H2O, 700 mg of amino acid mixtures without tryptophan (Takara Bio Inc., San Jose, CA, USA), and 20 mg of L-tryptophan were added per liter of medium. The pH was adjusted to 7.4, and a vitamin mixture (100X, Sigma) and glucose concentration of 2% were added. […] Bacterial strains were incubated in MH broth overnight, regrown, and diluted to a final concentration of 5 × 10^5 CFU/mL. Peptides were added to each well at final concentrations of 50, 25, 12.5, 6.25, 3.13, 1.56, and 0.78 µg/mL, and 99 µL of diluted microbes was loaded into each well of a polypropylene 96-well plate. […] The Morpheus HeatMap software (https://software.broadinstitute.org/morpheus/) was used to display MIC values on a color scale. All experiments were independently repeated three times.

[1] = tested on: Pseudomonas aeruginosa Migula (ATCC 27853)
Summary of the method: (§1)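 Broth microdilution per CLSI in Müller-Hinton broth and modified LYM broth (pH 7.4; variants with 50–300 mM NaCl, 0.5–2.5 mM MgCl2, or pH 6.5–4.5). Inoculum 5 × 10^5 CFU/mL; peptides tested at 0.78–50 µg/mL final. MIC read; three independent repeats.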

S. aureus ATCC 33593 = tested on: S. aureus ATCC 33593
Summary of the method: as §1

[2] = tested on: A. baumannii 14B0097 (Acinetobacter sp., BCRC number 14B0097)
Summary of the method: as §1

Gram-positive bacteria = assay: Geometric mean MIC and therapeutic index, Gram-positive bacteria; assay type: cell-based; conditions: Gram-positive bacteria; for GM G+ (geometric mean of the MIC values): MH broth, MIC >50 µg/mL counted as 100 µg/mL; for Therapeutic Index (TI) G+: HC10/GM
Experimental: In this study, we aimed to investigate the potential of W5K series peptides for therapeutic use. To evaluate their efficacy for antibacterial therapy, we used the Therapeutic Index (TI) as a measure of their cell selectivity. The TI was calculated as the ratio of the concentration causing 10% hemolysis of human red blood cells (HC10) to the geometric mean minimum inhibitory concentration (GM) of the peptides against both Gram-negative and Gram-positive bacteria. This parameter was used to quantitatively assess the balance between antibacterial potency and cytotoxicity among the W5K derivatives.
The antibacterial activities of the peptides in Müller-Hinton (MH) broth and modified LYM broth were determined using the standard broth microdilution method as per Clinical and Laboratory Standards Institute (CLSI) guidelines. The LYM broth was prepared with specific components and adjusted to different conditions, including varying concentrations of NaCl and MgCl2, and different pH levels. To prepare the LYM broth, 5.4 mM KCl, 5.6 mM Na2HPO4, 0.5 mM MgSO4, and 1.0 mM sodium citrate were added. Additionally, 0.4 mg of ZnCl2, 2.0 mg of FeCl3·6H2O, 0.1 mg of CuSO4·5H2O, 0.1 mg of MnSO4·H2O, 0.1 mg of Na2B4O7∙10H2O, 700 mg of amino acid mixtures without tryptophan (Takara Bio Inc., San Jose, CA, USA), and 20 mg of L-tryptophan were added per liter of medium. The pH was adjusted to 7.4, and a vitamin mixture (100X, Sigma) and glucose concentration of 2% were added. For different conditions of LYM broth, NaCl concentrations of 300, 200, 150, and 50 mM, MgCl2 concentrations of 2.5, 1.5, and 0.5 mM, and pH levels of 6.5, 5.5, and 4.5 were adjusted. Bacterial strains were incubated in MH broth overnight, regrown, and diluted to a final concentration of 5 × 10^5 CFU/mL. Peptides were added to each well at final concentrations of 50, 25, 12.5, 6.25, 3.13, 1.56, and 0.78 µg/mL, and 99 µL of diluted microbes was loaded into each well of a polypropylene 96-well plate. […] The Morpheus HeatMap software (https://software.broadinstitute.org/morpheus/) was used to display MIC values on a color scale. All experiments were independently repeated three times.

[3] = LYM broth, 0 mM NaCl, 16 h, 37 °C
[4] = LYM broth, 50 mM NaCl, 16 h, 37 °C
[5] = LYM broth, 100 mM NaCl, 16 h, 37 °C
[6] = LYM broth, 200 mM (NaCl), 16 h, 37 °C
[7] = LYM broth, 300 mM (NaCl), 16 h, 37 °C
[8] = MH broth, 5 × 10^5 CFU/mL, 16 h, 37 °C, repeated three times

For Ac-KWLAKKKKWRKWL-NH2 [Peptide W5K07], the MIC (S. aureus ATCC 33592; [3]) was 25 µg/mL, the MIC (S. aureus ATCC 33592; LYM broth, 0.5 mM MgCl2) was 25 µg/mL and the MIC (S. aureus ATCC 33592; LYM broth, 1.5 mM MgCl2) was 25 µg/mL. The MIC (S. aureus ATCC 33592; LYM broth, 2.5 mM MgCl2) was 25 µg/mL, the MIC (S. aureus ATCC 33592; [4]) was 25 µg/mL and the MIC (S. aureus ATCC 33592; [5]) was 50 µg/mL. For the same substance, the MIC (S. aureus ATCC 33592; [6]) was >50 µg/mL, the MIC (S. aureus ATCC 33592; [7]) was >50 µg/mL and the MIC (S. aureus ATCC 33592; LYM broth, pH 4.5) was 25 µg/mL. For the same substance, the MIC (S. aureus ATCC 33592; LYM broth, pH 5.5) was 25 µg/mL, the MIC (S. aureus ATCC 33592; LYM broth, pH 6.5) was 12.5 µg/mL and the MIC (S. aureus ATCC 33592; [8]) was >50 µg/mL. For the same substance, the MIC [1, 3] was 6.25 µg/mL, the MIC ([1]; LYM broth, 0.5 mM MgCl2) was 12.5 µg/mL and the MIC ([1]; LYM broth, 1.5 mM MgCl2) was 12.5 µg/mL. For the same substance, the MIC ([1]; LYM broth, 2.5 mM MgCl2) was 25 µg/mL, the MIC [1, 4] was 12.5 µg/mL and the MIC [1, 5] was 25 µg/mL. The MIC [1, 6] was >50 µg/mL, the MIC [1, 7] was >50 µg/mL and the MIC ([1]; LYM broth, pH 4.5) was 12.5 µg/mL. The MIC ([1]; LYM broth, pH 5.5) was 6.25 µg/mL, the MIC ([1]; LYM broth, pH 6.5) was 3.13 µg/mL and the MIC [1, 8] was 50 µg/mL. For the same substance, the MIC (S. aureus ATCC 33593; [3]) was 25 µg/mL, the MIC (S. aureus ATCC 33593; LYM broth, 0.5 mM MgCl2) was 25 µg/mL and the MIC (S. aureus ATCC 33593; LYM broth, 1.5 mM MgCl2) was 25 µg/mL. It also gave an MIC (S. aureus ATCC 33593; LYM broth, 2.5 mM MgCl2) of 25 µg/mL, an MIC (S. aureus ATCC 33593; [4]) of 25 µg/mL and an MIC (S. aureus ATCC 33593; [5]) of 50 µg/mL. For the same substance, the MIC (S. aureus ATCC 33593; [6]) was 50 µg/mL, the MIC (S. aureus ATCC 33593; [7]) was >50 µg/mL and the MIC (S. aureus ATCC 33593; LYM broth, pH 4.5) was 25 µg/mL. The MIC (S. aureus ATCC 33593; LYM broth, pH 5.5) was 12.5 µg/mL, the MIC (S. aureus ATCC 33593; LYM broth, pH 6.5) was 12.5 µg/mL and the MIC (S. aureus ATCC 33593; [8]) was >50 µg/mL. It also gave an MIC [2, 3] of 3.13 µg/mL, an MIC ([2]; LYM broth, 0.5 mM MgCl2) of 3.13 µg/mL and an MIC ([2]; LYM broth, 1.5 mM MgCl2) of 3.13 µg/mL. The MIC ([2]; LYM broth, 2.5 mM MgCl2) was 3.13 µg/mL, the MIC [2, 4] was 6.25 µg/mL and the MIC [2, 5] was 12.5 µg/mL. For the same substance, the MIC [2, 6] was 50 µg/mL, the MIC [2, 7] was >50 µg/mL and the MIC ([2]; LYM broth, pH 4.5) was 3.13 µg/mL. For the same substance, the MIC ([2]; LYM broth, pH 5.5) was 3.13 µg/mL, the MIC ([2]; LYM broth, pH 6.5) was 3.13 µg/mL and the MIC [2, 8] was 12.5 µg/mL. The “GM G+ (geometric mean of the MIC values)” value (Gram-positive bacteria) was 87.1 µg/mL and the “Therapeutic Index (TI) G+” value (Gram-positive bacteria) was 1.2.
For Ac-KWLKWLAKKKKWR-NH2 [Peptide W5K04], the MIC (S. aureus ATCC 33592; [3]) was 25 µg/mL, the MIC (S. aureus ATCC 33592; LYM broth, 0.5 mM MgCl2) was 25 µg/mL and the MIC (S. aureus ATCC 33592; LYM broth, 1.5 mM MgCl2) was 25 µg/mL. For the same substance, the MIC (S. aureus ATCC 33592; LYM broth, 2.5 mM MgCl2) was 25 µg/mL, the MIC (S. aureus ATCC 33592; [4]) was 25 µg/mL and the MIC (S. aureus ATCC 33592; [5]) was 50 µg/mL. For the same substance, the MIC (S. aureus ATCC 33592; [6]) was >50 µg/mL, the MIC (S. aureus ATCC 33592; [7]) was >50 µg/mL and the MIC (S. aureus ATCC 33592; LYM broth, pH 4.5) was 25 µg/mL. The MIC (S. aureus ATCC 33592; LYM broth, pH 5.5) was 25 µg/mL, the MIC (S. aureus ATCC 33592; LYM broth, pH 6.5) was 12.5 µg/mL and the MIC (S. aureus ATCC 33592; [8]) was >50 µg/mL. The MIC [1, 3] was 12.5 µg/mL, the MIC ([1]; LYM broth, 0.5 mM MgCl2) was 6.25 µg/mL and the MIC ([1]; LYM broth, 1.5 mM MgCl2) was 12.5 µg/mL. For the same substance, the MIC ([1]; LYM broth, 2.5 mM MgCl2) was 12.5 µg/mL, the MIC [1, 4] was 12.5 µg/mL and the MIC [1, 5] was 25 µg/mL. For the same substance, the MIC [1, 6] was >50 µg/mL, the MIC [1, 7] was >50 µg/mL and the MIC ([1]; LYM broth, pH 4.5) was 6.25 µg/mL. For the same substance, the MIC ([1]; LYM broth, pH 5.5) was 6.25 µg/mL, the MIC ([1]; LYM broth, pH 6.5) was 3.13 µg/mL and the MIC [1, 8] was 50 µg/mL. The MIC (S. aureus ATCC 33593; [3]) was 25 µg/mL, the MIC (S. aureus ATCC 33593; LYM broth, 0.5 mM MgCl2) was 25 µg/mL and the MIC (S. aureus ATCC 33593; LYM broth, 1.5 mM MgCl2) was 25 µg/mL. The MIC (S. aureus ATCC 33593; LYM broth, 2.5 mM MgCl2) was 25 µg/mL, the MIC (S. aureus ATCC 33593; [4]) was 25 µg/mL and the MIC (S. aureus ATCC 33593; [5]) was 50 µg/mL. For the same substance, the MIC (S. aureus ATCC 33593; [6]) was >50 µg/mL, the MIC (S. aureus ATCC 33593; [7]) was >50 µg/mL and the MIC (S. aureus ATCC 33593; LYM broth, pH 4.5) was 25 µg/mL. For the same substance, the MIC (S. aureus ATCC 33593; LYM broth, pH 5.5) was 25 µg/mL, the MIC (S. aureus ATCC 33593; LYM broth, pH 6.5) was 25 µg/mL and the MIC (S. aureus ATCC 33593; [8]) was >50 µg/mL. It also gave an MIC [2, 3] of 1.56 µg/mL, an MIC ([2]; LYM broth, 0.5 mM MgCl2) of 1.56 µg/mL and an MIC ([2]; LYM broth, 1.5 mM MgCl2) of 3.13 µg/mL. It also gave an MIC ([2]; LYM broth, 2.5 mM MgCl2) of 3.13 µg/mL, an MIC [2, 4] of 3.13 µg/mL and an MIC [2, 5] of 3.13 µg/mL. For the same substance, the MIC [2, 6] was 12.5 µg/mL, the MIC [2, 7] was 50 µg/mL and the MIC ([2]; LYM broth, pH 4.5) was 3.13 µg/mL. The MIC ([2]; LYM broth, pH 5.5) was 1.56 µg/mL, the MIC ([2]; LYM broth, pH 6.5) was 1.56 µg/mL and the MIC [2, 8] was 12.5 µg/mL. For the same substance, the “GM G+ (geometric mean of the MIC values)” value (Gram-positive bacteria) was 66.0 µg/mL and the “Therapeutic Index (TI) G+” value (Gram-positive bacteria) was 1.6.
